The source of these data is patent US20260158031A1, “AROMATIC HETEROCYCLIC COMPOUND, PHARMACEUTICAL COMPOSITION CONTAINING THE SAME, AND USE THEREOF” (HANG ZHOU YUHONG PHARMATECH CO., LTD., priority 2021, published 2026).

One series has as its target TYK2 (Homo sapiens, UniProt P29597). The series is described as follows: Kinase selectivity experiment, mobility shift assay, TYK2. In kind it is biochemical. The conditions noted are these: Example 137. On the procedure:
(§1) The compounds were diluted with gradients into solutions with a final concentration of 100 times in a 384-well plate. Then 250 nL was transferred to a 384 reaction plate with Echo550 for later use. […]

A further series deals with JAK2 (Homo sapiens, UniProt O60674). The experiment in a line: Kinase selectivity experiment, mobility shift assay, JAK2. The conditions noted are these: Example 137. In kind it is biochemical. On the procedure: as §1
A further series addresses T1, JAK3 kinase (Homo sapiens, UniProt P52333).
T1 sequence (P52333 1-1124): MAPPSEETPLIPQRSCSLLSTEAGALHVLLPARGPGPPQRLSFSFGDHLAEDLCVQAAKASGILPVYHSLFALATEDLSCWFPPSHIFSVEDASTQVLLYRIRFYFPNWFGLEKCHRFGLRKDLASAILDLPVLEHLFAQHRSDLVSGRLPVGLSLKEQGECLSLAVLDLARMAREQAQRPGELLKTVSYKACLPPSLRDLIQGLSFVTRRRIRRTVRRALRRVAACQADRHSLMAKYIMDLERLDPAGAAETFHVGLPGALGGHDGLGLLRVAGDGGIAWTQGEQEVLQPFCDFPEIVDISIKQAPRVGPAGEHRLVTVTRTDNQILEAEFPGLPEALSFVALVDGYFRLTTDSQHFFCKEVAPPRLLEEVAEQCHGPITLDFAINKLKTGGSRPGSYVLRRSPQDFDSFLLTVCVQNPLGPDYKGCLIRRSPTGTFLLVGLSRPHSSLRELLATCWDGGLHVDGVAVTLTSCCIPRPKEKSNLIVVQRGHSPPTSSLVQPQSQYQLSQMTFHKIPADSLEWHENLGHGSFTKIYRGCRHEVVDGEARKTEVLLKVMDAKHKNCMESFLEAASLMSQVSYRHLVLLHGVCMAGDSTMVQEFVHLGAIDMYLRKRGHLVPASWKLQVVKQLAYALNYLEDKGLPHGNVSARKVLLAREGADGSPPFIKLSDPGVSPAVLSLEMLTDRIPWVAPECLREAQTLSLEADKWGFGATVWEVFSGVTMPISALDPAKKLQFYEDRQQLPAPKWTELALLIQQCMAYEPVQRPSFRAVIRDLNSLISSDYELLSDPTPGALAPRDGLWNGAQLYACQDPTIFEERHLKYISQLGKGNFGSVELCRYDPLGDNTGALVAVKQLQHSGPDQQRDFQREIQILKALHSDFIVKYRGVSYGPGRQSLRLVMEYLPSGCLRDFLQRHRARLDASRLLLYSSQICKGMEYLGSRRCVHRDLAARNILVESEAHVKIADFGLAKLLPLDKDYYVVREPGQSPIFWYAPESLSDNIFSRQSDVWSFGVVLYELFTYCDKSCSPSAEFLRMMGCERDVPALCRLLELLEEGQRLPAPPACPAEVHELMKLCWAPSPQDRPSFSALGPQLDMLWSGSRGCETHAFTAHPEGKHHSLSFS
The experiment in a line: Mobility shift assay, in vitro JAK3 kinase inhibitory activity. The class given is biochemical. The protocol: A Mobility shift assay was adopted to detect compounds to be tested (see list below) for in vitro inhibitory activity on the enzyme activity of JAK3 kinase.
The compound was dissolved in 100% DMSO to formulate a 10 mM stock solution, which was stored in a −20° C. refrigerator with protection from light.
The compounds were diluted with gradients into solutions with a final concentration of 100 times in a 384-well plate. Then 250 nL was transferred to a 384 reaction plate with Echo550 for later use. 250 nL of 100% DMSO was added into the negative control well and the positive control well respectively. • (3) A kinase solution with a final concentration of 2.5 times was formulated with the 1× Kinase buffer. • (4) The compound wells and the positive control wells were added with 10 μL of the kinase solution with the final concentration of 2.5 times respectively; the negative control wells were added with 10 μL of the 1× Kinase buffer. • (5) The wells were centrifuged at 1,000 rpm for 30 seconds, mixed well by shaking, and then incubated at room temperature for 10 minutes. • (6) A mixed solution of ATP and Kinase substrate 22 with a final concentration of 25/15 times was formulated with a 1× Kinase buffer. • (7) The compound wells, positive control wells and negative control wells of the 384 reaction plate were respectively added with 15 μL of a mixed solution of ATP and the substrate at the final concentration of 25/15 times to start the reaction. • (8) The 384-well plate was centrifuged at 1,000 rpm for 30 seconds, mixed well by shaking, and then incubated at room temperature for 30 minutes. • (9) 30 μL of a detection termination solution was added to stop the kinase reaction, centrifuged at 1,000 rpm for 30 seconds, and mixed well by shaking. • (10) The conversion rate was read with Caliper EZ Reader.
% Inhibition=(Conversion %_max−Conversion %_sample)/(Conversion %_max−Conversion %_min)×100 (1) Calculation Equation
Among them: Conversion %_sample was the conversion rate reading of the sample; Conversion %_min was the mean value of the negative control wells, representing the conversion rate reading of the wells without enzyme activity; Conversion % max was the mean value of the positive control wells, representing the conversion rate reading of the wells without compound inhibition; and % Inhibition represented the percentage inhibition rate.
• by taking the log value of concentration as the X axis and taking the percent inhibition rate as the Y axis, a dose-response curve is fitted by adopting the log (inhibitor) vs. response-Variable slope of the analysis software GraphPad Prism 5, so as to obtain the IC50 value of each compound on the enzyme activity. The calculation equation was Y=Bottom+ (Top−Bottom)/(1+10^((Log IC50−X)*HillSlope)).

The next series addresses JAK1 (Homo sapiens, UniProt P23458). The experiment in a line: Kinase selectivity experiment, mobility shift assay, JAK1. The class given is biochemical. The conditions noted are these: Example 137. On the procedure: as §1
Series [1] deals with p-STAT5 under stimulation with IL-15 in PBMCs. The experiment in a line: IL-15 stimulated hPBMC p-STAT5 ELISA. In kind it is cell-based. The conditions noted are these: Homo sapiens, PBMC, 45 min compound, 30 min IL-15, ELISA. The protocol:
Based on the mechanism of the JAK-STAT pathway, the cytokine IL-15 was adopted to stimulate hPBMC cells, and the downstream STAT5 phosphorylation level was taken as a detection indicator to evaluate the effect of the compound on the JAK-STAT pathway.
• 1. Seeding plate for PBMC cell counting: 90 μL of PBMCs were seeded in a 96-well plate (PBMC cell density: 80,000/well). • 2. Treatment of compound to be tested: after the cells were seeded on the plate, administration treatment was performed immediately. The drug to be tested was 5 μL/well (with final concentration of 1, 0.5, 0.1, 0.05, 0.01, and 0.005 μM), and the plate was incubated in a 37° C. incubator for 45 min. • 3. Stimulation with cytokine IL-15: the cells were stimulated with 5 μL of IL-15 and incubated at 37° C. for 30 min. • 4. Protein sample collection: the cells were collected in a centrifuge tube and centrifuged for 5 min. The supernatant was discarded after the centrifuging, and the cells were lysed with 1× Cell Extraction Buffer PTR. • 5. p-STAT5 detection: detection was conducted according to the requirements of a ELISA kit.
Experimental results: IC50 values of compounds on p-STAT5 under stimulation with IL-15 in PBMCs
On the technique in general: ELISA stands for enzyme-linked immunosorbent assay.

The test system of another series is SRBC mouse model. The experiment in a line: SRBC-induced delayed type hypersensitivity (DTH) in mice. The class given is in vivo. To be noted: male Balb/c mice, 100 mg/kg by gavage once a day, day 0 to day 6, FIG. 1. The protocol:
PF-06651600 was used as a positive control compound.
Drug preparation: the compound was weighed and added with a 0.5% CMC-Na solution to prepare a drug suspension (with an administration dose of 10 mg/mL).
Induction of delayed type hypersensitivity (DTH) and administration: 30 male Balb/c mice were weighed and randomly divided into 6 groups according to body weight, with 5 mice in each group. The experimental period lasted for 7 days in total. On day 0, the mice were subcutaneously injected with sheep red blood cells (SRBCs) for sensitization. From day 0, the mice were administrated with 100 mg/kg by gavage (once a day) until day 6. On day 6, SRBCs were injected into the right hind foot pad of the mice for excitation. On day 7 of the experiment, measurements were conducted, photographs were taken, and the experiment was ended.
Pharmacodynamic detection indicators of disease models: the detection and observation indicators were the degree of redness and swelling and detected thicknesses of paw pads of the mice in the model group as induced by SRBC. The thickness of the right paw was measured as the baseline before the SRBC injection excitation on day 6. At the end of the experiment […], the thickness of the right paw was measured again, and the difference in thickness of the paw before and after the second injection was calculated.
Statistical processing: experimental data was expressed as mean±standard deviation (Mean±SD). All data was statistically analyzed using a T-test. P<0.05 was considered to be statistically different.

The test system of series [2] is collagen-induced mouse arthritis model. The experiment in a line: Collagen-induced mouse arthritis model (mCIA). The class given is in vivo, DBA/1J mice. To be noted: female DBA/1J CIA mice, 50 mg/kg once a day, FIG. 2. An excerpt: Objective of Experiment: to test the immunosuppressive activity of YZ001052 in a mCIA model. PF-06651600 was used as a positive control compound.
Complete and incomplete Freund's adjuvants were mixed with a chicken type II collagen solution in equal proportions to form an emulsifier. Except for the blank control group, on Day 0, a mixture of a complete Freund's adjuvant and the chicken type II collagen solution was subcutaneously injected into the tail roots and thigh roots of the mice, with 100 μL being injected subcutaneously at the tail root of each mouse; and 50 μL being injected subcutaneously at each of the two thigh roots of each mouse (primary immunization). On day 21, the mice were subcutaneously injected with 200 μL of a mixture of an incomplete Freund's adjuvant and the chicken type II collagen solution as a booster injection (second immunization). […] Measurement of paw thickness: the thicknesses of the left and right hind feet of the mice were measured with a vernier caliper to serve as the paw swelling degree and recorded, and the detection frequency was once every 3 days.

Series [3] in a line: In vivo exposure detection in SD rats (plasma, LC-MS/MS). The conditions noted are these: IG 20 mg/kg, average value. On the procedure:
Preparation and processing of standard curves and quality control samples: the compound stock solution was taken and diluted with 50% methanol and water into standard working solutions containing respective compounds at concentrations of 20, 40, 100, 200, 400, 1,000, 2,000, 4,000, and 10,000 ng/mL respectively and quality control working solutions at concentrations of 60, 600 and 8,000 ng/mL respectively. Each 47.5 μL of blank rat plasma was taken and added with 2.50 μL of a standard curve working solution and a quality control working solution respectively to prepare standard curve samples containing respective compounds at concentrations of 1.00, 2.00, 5.00, 10.00, 20.00, 50.00, 100.00, 200.00 and 500.00 ng/mL and quality control samples with concentrations of 3.00, 30.00 and 400.00 ng/mL. The samples were respectively added with 200 μL of acetonitrile (containing 2 ng/mL of verapamil as an internal standard), vortexed with shaking for 3 min, and then centrifuged at 20,000 rcf and 4° C. for 10 min, and the supernatant was taken for LC-MS/MS analysis.
Preparation and processing of plasma sample to be tested: 50 μL of the plasma sample was taken, added with 200 μL of acetonitrile (containing 2 ng/ml of verapamil as an internal standard), vortexed with shaking for 3 min, and then centrifuged at 20,000 rcf and 4° C. for 10 min, and […] for LC-MS/MS analysis.

The mark [4] stands for this setting: mobility shift assay, Example 136.

Sequence of JAK1 (P23458 whole entry, species assumed): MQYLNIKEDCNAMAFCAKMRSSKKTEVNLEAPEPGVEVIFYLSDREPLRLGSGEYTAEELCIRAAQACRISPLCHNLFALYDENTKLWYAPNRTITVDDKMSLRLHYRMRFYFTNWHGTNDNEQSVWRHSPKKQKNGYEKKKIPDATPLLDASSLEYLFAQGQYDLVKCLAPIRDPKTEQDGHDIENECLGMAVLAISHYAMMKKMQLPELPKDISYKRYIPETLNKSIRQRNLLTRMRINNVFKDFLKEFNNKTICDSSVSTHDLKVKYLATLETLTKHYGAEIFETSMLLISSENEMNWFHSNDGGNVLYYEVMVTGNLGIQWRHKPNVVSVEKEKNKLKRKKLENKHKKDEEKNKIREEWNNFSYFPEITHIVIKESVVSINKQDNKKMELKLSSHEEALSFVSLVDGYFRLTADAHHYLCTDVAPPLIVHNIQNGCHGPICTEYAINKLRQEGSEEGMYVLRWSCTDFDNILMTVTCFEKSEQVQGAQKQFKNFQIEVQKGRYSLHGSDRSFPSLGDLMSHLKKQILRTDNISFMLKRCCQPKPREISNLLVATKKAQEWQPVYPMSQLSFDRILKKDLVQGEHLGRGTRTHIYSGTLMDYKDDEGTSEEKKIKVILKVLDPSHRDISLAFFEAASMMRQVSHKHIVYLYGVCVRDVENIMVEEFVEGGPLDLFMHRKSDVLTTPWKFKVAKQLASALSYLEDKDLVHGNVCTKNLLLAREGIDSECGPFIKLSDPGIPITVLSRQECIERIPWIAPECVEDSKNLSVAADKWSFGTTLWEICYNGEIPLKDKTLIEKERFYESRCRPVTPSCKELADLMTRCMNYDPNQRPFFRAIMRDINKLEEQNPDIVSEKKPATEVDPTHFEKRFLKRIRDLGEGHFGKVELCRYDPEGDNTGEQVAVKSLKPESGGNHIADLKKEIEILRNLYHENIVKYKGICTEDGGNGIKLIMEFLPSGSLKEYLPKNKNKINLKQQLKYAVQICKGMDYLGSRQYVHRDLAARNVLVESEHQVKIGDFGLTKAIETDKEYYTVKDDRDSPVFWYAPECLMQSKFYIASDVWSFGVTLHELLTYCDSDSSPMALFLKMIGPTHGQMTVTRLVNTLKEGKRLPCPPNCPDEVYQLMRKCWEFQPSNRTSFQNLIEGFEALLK
Sequence of TYK2 (P29597 whole entry, species assumed): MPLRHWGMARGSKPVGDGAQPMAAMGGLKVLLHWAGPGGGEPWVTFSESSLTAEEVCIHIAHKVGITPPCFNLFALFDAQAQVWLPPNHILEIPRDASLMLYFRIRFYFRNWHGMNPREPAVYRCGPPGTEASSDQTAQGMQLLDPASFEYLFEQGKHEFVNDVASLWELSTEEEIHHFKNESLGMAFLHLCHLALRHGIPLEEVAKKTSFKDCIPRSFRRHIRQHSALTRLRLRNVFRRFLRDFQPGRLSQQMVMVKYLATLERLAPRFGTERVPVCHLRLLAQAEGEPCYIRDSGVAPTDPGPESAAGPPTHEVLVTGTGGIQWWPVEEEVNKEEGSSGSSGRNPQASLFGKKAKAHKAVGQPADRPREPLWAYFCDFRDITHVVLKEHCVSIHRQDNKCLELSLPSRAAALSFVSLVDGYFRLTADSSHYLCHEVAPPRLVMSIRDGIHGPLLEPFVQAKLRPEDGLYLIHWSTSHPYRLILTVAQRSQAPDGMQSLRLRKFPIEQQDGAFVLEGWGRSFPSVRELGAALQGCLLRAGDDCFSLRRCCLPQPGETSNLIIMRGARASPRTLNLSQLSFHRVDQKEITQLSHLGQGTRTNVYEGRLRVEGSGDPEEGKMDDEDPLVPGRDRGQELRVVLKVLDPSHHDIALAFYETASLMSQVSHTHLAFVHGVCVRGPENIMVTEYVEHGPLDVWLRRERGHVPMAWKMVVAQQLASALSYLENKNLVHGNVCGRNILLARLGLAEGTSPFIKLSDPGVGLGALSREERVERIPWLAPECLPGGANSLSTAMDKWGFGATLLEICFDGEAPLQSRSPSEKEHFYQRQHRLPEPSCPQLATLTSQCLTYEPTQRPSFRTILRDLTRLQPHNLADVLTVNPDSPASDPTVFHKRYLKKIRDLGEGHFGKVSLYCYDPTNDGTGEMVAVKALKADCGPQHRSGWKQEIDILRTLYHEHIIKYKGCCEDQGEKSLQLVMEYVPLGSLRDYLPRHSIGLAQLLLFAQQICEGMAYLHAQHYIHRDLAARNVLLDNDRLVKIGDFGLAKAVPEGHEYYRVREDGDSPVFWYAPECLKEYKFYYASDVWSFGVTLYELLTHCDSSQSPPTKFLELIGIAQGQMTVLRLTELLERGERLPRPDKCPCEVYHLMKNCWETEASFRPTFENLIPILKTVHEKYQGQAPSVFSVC
Sequence of JAK2 (O60674 whole entry, species assumed): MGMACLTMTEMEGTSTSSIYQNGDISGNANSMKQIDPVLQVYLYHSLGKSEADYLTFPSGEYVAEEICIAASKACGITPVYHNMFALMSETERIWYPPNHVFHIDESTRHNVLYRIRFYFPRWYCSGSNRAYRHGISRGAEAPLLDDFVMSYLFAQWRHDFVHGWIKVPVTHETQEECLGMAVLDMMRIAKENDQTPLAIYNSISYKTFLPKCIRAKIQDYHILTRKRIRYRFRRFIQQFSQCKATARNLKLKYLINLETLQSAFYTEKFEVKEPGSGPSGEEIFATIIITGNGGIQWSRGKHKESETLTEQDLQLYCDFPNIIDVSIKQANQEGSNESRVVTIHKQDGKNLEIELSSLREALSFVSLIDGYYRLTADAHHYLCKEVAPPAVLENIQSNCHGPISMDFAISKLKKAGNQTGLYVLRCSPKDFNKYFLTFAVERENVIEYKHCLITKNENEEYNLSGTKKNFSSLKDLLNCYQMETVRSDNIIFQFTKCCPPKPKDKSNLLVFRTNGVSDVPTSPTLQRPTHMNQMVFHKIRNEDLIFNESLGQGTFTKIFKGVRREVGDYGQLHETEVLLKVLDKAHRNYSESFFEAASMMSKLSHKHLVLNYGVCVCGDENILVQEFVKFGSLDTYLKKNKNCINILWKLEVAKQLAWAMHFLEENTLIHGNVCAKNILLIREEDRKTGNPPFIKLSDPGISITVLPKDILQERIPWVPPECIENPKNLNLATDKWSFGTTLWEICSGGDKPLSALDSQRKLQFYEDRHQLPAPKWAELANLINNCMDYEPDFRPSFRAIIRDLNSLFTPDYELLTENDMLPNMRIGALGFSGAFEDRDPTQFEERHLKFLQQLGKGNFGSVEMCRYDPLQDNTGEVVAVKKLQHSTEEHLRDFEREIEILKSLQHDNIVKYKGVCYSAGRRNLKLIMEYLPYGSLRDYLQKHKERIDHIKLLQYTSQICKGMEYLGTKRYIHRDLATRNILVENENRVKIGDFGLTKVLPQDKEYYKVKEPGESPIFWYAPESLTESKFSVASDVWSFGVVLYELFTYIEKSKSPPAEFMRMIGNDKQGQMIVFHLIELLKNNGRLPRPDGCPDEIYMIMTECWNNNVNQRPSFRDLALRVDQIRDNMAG

As for `C[C@@H]1Cn2ncc(-c3ccnc4[nH]ccc34)c2CN1C(=O)/C=C/CN(C)C` [YZ001005], the IC50 at TYK2 was above 10000 nM; on JAK2, above 10000 nM; on JAK3 kinase (selectivity table, Example 137) it was 16 nM; on JAK1, above 10000 nM.
`C=C(F)C(=O)N1Cc2c(-c3ccnc4[nH]ccc34)cnn2C[C@H]1CCS(C)(=O)=O` [YZ001075]: the IC50 was determined as 1.2 nM on JAK3 kinase (setting [4]) and 31.7 nM in series [1].
For the compound `C=CC(=O)N1CCc2[nH]nc(-c3ccnc4[nH]ccc34)c2C1` [YZ001065], in the series on SRBC mouse model, the “immunosuppressive effect on SRBC-induced delayed type hypersensitivity (right paw thickness)” value is recorded as “significant immunosuppressive effects”. Moreover, the IC50 was 0.7 nM at JAK3 kinase (setting [4]) and 26.3 nM in series [1].
With `C=CC(=O)N1C[C@H](Nc2ncnc3[nH]ccc23)CC[C@@H]1C` [PF-06651600, reference compound], the “swelling of the paws” value in series [2] was “improved to varying degrees”. Also, in series [2] (compared to the model group), the arthritis scores entry is listed as “significantly reduced”. The IC50 in series [1] turned out to be 85 nM.
Turning to `C=CC(=O)N1Cc2c(-c3ccnc4[nH]ccc34)cnn2C[C@H]1C` [YZ001001], the IC50 at TYK2, at JAK2 and on JAK1 was above 10000 nM throughout.
As for `C=C(F)C(=O)N1CCc2c(c(-c3ccnc4[nH]ccc34)nn2C)C1` [YZ001054], the “immunosuppressive effect on SRBC-induced delayed type hypersensitivity (right paw thickness)” value in the series with SRBC mouse model was “significant immunosuppressive effects”. In series [3], the AUClast_D turned out to be 93.88 kg·ng·h/mL/mg, the Cl_F_obs came out at 235.1403 mL/min/kg, the HL_Lambda_z stood at 1.4162 h and the Vz_F_obs came out at 34.35946 L/kg. In series [3] (Sprague-Dawley (SD), rat, po), the AUC(0-t) came to 1880 ng·h/mL, the Cmax was 1360 ng/mL and the time to peak (Tmax) came out at 4.5 h. For the same compound, the AUC(0-inf) in series [3] (Sprague-Dawley (SD), rat, po, read-out: AUCINF_obs) came to 1900 ng·h/mL. Further, in series [3] (Sprague-Dawley (SD), rat, po, read-out: MRTINF_obs), the MRT inf turned out to be 1.95 h.

As usually defined, the IC50 is the concentration at which inhibition is half-maximal. One may read the AUC(0-t) as exposure summed from dosing to a finite time, without extrapolation to infinity. What is called Cmax is the highest concentration seen after dosing. Usually Tmax stands for the time from dosing to the highest level.
